Measured values published in patent US20130109581A1, “POSITIVELY CHARGED SPECIES AS BINDING REAGENTS IN THE SEPARATION OF PROTEIN AGGREGATES FROM MONOMERS” (priority 2009, published 2013).

Legend:
[1] = target: T1, AA-related moieties (serum amyloid A aggregates) (Mus musculus, UniProt P05367); assay: PSR-1 bead-based capture of AA species from spleen homogenates; format: binding
T1 construct: These experiments indicate that PSR1-coated beads can capture AA-related moieties; from tissue; host or cells: spleen homogenate of mice with induced AA amyloidosis
Method: Amyloid enhancing factor (AEF) was extracted from amyloid-laden liver as described earlier, and used for amyloid induction in four different groups of mice. Each mouse received 20 ug of protein extract as an intravenous injection in the tail vein and systemic inflammation was stimulated by concomitant subcutaneous injection of 0.2 ml 1% silver nitrate (AgNO3). Further inflammatory stimuli were given once a week on day 7, 14 and 21. Mice were sacrificed in several time points on day 5, 9, 16 and 23. Control mice received only single silver nitrate injection and were sacrificed 16 hrs later.
10% spleen homogenates were prepared in PBS, […], using an ultra-sound tissue homogenizator. Homogenates were centrifuged at 200×g for 1 min and the supernatants were used for the PSR1 bead-based capture assay. For immunoblotting analysis the PBS-insoluble tissue pellet was solubilised in 8M urea for 24 hrs on a wheel at room temperature.
PSR1-conjugated beads were washed two times with 1 ml of TBS-TT (TBS, 1% TritonX, 1% Tween20) before incubation with 10% spleen homogenate in a total volume of 100 μl TBS-TT for 1 hr at 37° C. and under shaking at 750 rpm. […] 150 ul of eluate was aspirated from the beads and the presence of SAA/AA proteins were analysed using the mouse SAA ELISA from Tridelta Ltd. or by immunoblotting. […]

[2] = target: T2, oligomeric beta amyloid 1-42 (globulomer) (Homo sapiens, UniProt P05067); assay: Misfolded Protein Assay: capture of globulomer spiked into CSF (Example 2); format: binding
T2 construct: beta amyloid (1-42) was monomerized with incubation in hexafluoroisopropanol
Method: To assess the ability of these reagents to capture protein aggregates, the previously described Misfolded Protein Assay or MPA (Lau et al., 2007, PNAS, 104: 11551) was used (FIG. 3). In this assay, the capture reagent of interest is attached to beads which are incubated with a sample of interest containing a mixture of normal monomeric and aggregated proteins to allow for capture and then washed to remove unbound material. After this enrichment step, an elution buffer is used to dissociate the captured material from the beads as well as to denature any aggregates. The eluted material is then applied to a sandwich ELISA that is specific for the protein of interest. Strong aggregate-binding reagents acting as effective capture reagents show a high signal from the sample containing a mixture of monomers and aggregates, but not from the control sample, which contains only physiologic levels of monomeric protein.
Beads displaying carboxylic acids were treated with EDC and BMPH to create maleimide-displaying beads, to which thiolated peptides (or other thiolated organic molecules) were added through a Michael addition reaction. Dynal M270 magnetized beads (30 mg/mL bead) displaying carboxylic acids were vortexed and placed into a 15 ml falcon tube. The tube was placed into a magnet, and the supernatant removed. The beads were washed 2 times with 0.1 M MES buffer, pH 5, and then the washing buffer was removed. The coupling solution (33 mM BMPH, 130 mM EDC in MES buffer) was added, and the tube was rocked for 30 minutes at room temperature. After washing in 1×MES, 1× Tris, pH 7.5, the beads were quenched with Tris buffer (50 mM Tris buffer, pH 7.5) for 15 minutes. The beads were then washed 2 times in phosphate buffer and added to 5 mM thiolated ligand in degassed phosphate. The beads were rotated for 21 hours, then washed in 0.1 M phosphate buffer, pH 7, 1×PBS, and stored.
To prepare the globulomer, beta amyloid (1-42) was monomerized with incubation in hexafluoroisopropanol. The hexafluoroisopropanol was removed by vacuum centrifugation. DMSO, PBS, and 2% SDS were then added to the sample. The sample was vortexed and sonicated and then incubated at 37° C. After 6 hours, the sample was diluted with water, vortexed, and incubated at 37° C. for an additional 19 hours. The sample was ultracentrifuged at 135000×g for 1 hour at 4° C., and the supernatant retained. The globulomers were spiked into CSF for the assay.
Aliquots of beads conjugated to various reagents were added to wells of a 96-well plate. Globulomer-spiked CSF in a Tris buffer was added to each well, and the plates were incubated for 1 hour at 37° C. with shaking. For the negative control, normal CSF was used, which is considered to contain only monomers of beta amyloid. The beads were washed with TBST wash buffer, and bound materials were eluted with a denaturing solution (typically 0.1-0.15 N NaOH). A reconditioning buffer was added to the eluate prior to beta amyloid detection via a beta amyloid (1-42) specific sandwich ELISA.
In order to determine the amount of ligand loading, amine quanitation was used. Aliquots of beads were placed in a magnet, and the supernatant removed. 80% phenol in ethanol, 0.2 mM KCN in pyridine/water, and 6% ninhydrin in ethanol was added to each tube. The aliquots were vortexed and heated for 7 minutes at 100° C. After cooling to room temperature, 60% ethanol was added. The tubes were placed in a magnet, and the absorbance of the supernatant at 570 nm was determined. The loading of the beads was determined according to Beer's law, using the extinction coefficient of 15000 M-1 cm-1.
Beads (3 ul or 15 ul) were added to samples containing 0.5 ng/mL globulomer spiked into CSF. […] For PSR1, this limit was ˜5 nmol ligand/mg bead for binding preferentially to globulomer. […]

T2 sequence (P05067 672-713 limits assumed): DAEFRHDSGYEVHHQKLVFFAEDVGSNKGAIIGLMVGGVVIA
T1 sequence (P05367 20-94 limits assumed): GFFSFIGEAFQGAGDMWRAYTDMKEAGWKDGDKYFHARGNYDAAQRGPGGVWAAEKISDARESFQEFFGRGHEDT

Nab-Nab-Nab-Nbn-Nab-Nbn [PSR1] was tested. Which “SAA detected in eluates (sandwich ELISA)” value ([1]; 3 uL PSR1 beads, spleen homogenate with splenic AA vs untreated control) did it give?
The value was “SAA could be detected only in the eluates from the AA-containing sample”.

What about the “SAA detected in eluates after denaturation of input” value ([1]; denatured, buffered and undenatured AA-containing samples, FIG. 44) of the same substance?
The value was “SAA could be detected only in the eluates from undenatured or buffered AA-containing samples”.

And the “minimum density required for oligomer capture” value (from here on “minimum density required”) ([2]; 0.5 ng/mL globulomer in CSF, assuming all amines protonated at pH 7.4)?
The value was “roughly 6000 nmol positive charges/m^2”.

What about the “minimum density required” value ([2]; 0.5 ng/mL globulomer in CSF, from 2-5 m^2 surface area per gram bead) of the same substance?
Its value is “approximately 1500 nmol ligand/m^2”.

And the “minimum density required” value ([2]; 0.5 ng/mL globulomer spiked into CSF, 3 ul or 15 ul beads)?
Its value is about 5 nmol ligand/mg bead.

And the “capture of oligomers (relative light units from the Abeta ELISA)” value ([2]; globulomer-spiked CSF vs normal CSF, reagent on Dynal M270 beads)?
The value was “capable of enriching oligomers”.

And the “sensitivity and specificity for globulomers” value ([2]; native vs denatured globulomer in CSF, directly conjugated beads vs streptavidin beads with biotin-PSR1)?
Its value is “higher sensitivity and specificity for globulomers”.
